In article PMC4979012, “Structural basis for cytokinin production by LOG from Corynebacterium glutamicum” (Scientific Reports, 2016):

How the values were obtained:
CgLOG (Cg2612) [1] = molecular target: T1, CgLOG (Cg2612) (Corynebacterium glutamicum, UniProt Q8NN34, S19A); assay: phosphoribohydrolase assay, TLC with UV detection of adenine; assay type: biochemical; settings: 20 mM AMP, 36 mM Tris-HCl pH 8.0, 30 °C, 23 μM enzyme
T1 construct: gene Cgl2379; full-length, C-terminal 6xHis (pET30a), E. coli BL21(DE3); dimer; residues 2-195 seen in crystal; active site at dimer interface
T1 sequence (Q8NN34 entry or part of it S19A): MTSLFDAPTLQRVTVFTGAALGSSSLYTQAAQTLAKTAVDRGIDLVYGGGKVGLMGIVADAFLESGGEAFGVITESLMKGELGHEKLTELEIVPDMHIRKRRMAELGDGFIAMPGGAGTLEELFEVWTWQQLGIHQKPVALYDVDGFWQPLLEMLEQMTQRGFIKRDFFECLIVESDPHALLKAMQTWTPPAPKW

CgLOG (Cg2612) [2] = molecular target: T2, CgLOG (Cg2612) (Corynebacterium glutamicum, UniProt Q8NN34); assay: as above; assay type: biochemical; settings: 20 mM AMP, 36 mM Tris-HCl pH 8.0, 30 °C, 23 μM enzyme
T2 construct: gene Cgl2379; full-length, C-terminal 6xHis (pET30a), E. coli BL21(DE3); dimer; residues 2-195 seen in crystal; active site at dimer interface
T2 sequence (Q8NN34 1-195): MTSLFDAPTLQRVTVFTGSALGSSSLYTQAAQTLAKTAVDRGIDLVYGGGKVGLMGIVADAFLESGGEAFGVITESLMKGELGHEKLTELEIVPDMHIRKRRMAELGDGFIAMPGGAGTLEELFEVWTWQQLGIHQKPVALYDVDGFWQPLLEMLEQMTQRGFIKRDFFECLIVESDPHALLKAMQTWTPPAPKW

[3] = molecular target: LOG from Corynebacterium glutamicum ATCC 13032 (gene product of Cg2612) (Corynebacterium glutamicum ATCC 13032); assay: SEC; analytical, Superdex 200 10/300, 150 mM NaCl, 300 μL of 3 mg/ml protein; molecular weight from a calibration curve of standards
[4] = molecular target: LOG from Corynebacterium glutamicum ATCC 13032 (gene product of Cg2612) (Corynebacterium glutamicum ATCC 13032); assay: SAXS; solution SAXS at 4 °C, CgLOG 0.5 ~ 4.5 mg/ml; molecular mass by the QR method

| stoichiometry N [3] | stoichiometry N [4] | Compound | phosphoribohydrolase assay, TLC with UV detection of adenine (CgLOG (Cg2612) [1]) | phosphoribohydrolase assay, TLC with UV detection of adenine (CgLOG (Cg2612) [2]) |
| --- | --- | --- | --- | --- |
|  |  | Nc1ncnc2c1ncn2[C@@H]1O[C@H](COP(=O)(O)O)[C@@H](O)[C@H]1O [AMP] | One exception is S19A mutant which shows higher activity than the wild-type | we observed that Cg2612 has phosphoribohydrolase activity |
| 2 | 2 | LOG from Corynebacterium glutamicum ATCC 13032 (gene product of Cg2612) (enzyme) |  |  |
